From patent US11311633B2, “Satiation peptides for weight loss and altered taste sensitivity” (University of Florida Research Foundation, Incorporated, priority 2016, dated 2022)

Legend:
mice [1] = test: Exendin-4 oral spray prior to meals, food intake; type: in vivo
Description: PYY and GLP-1 are both produced in […] L-cells and secreted simultaneously into the blood stream in response to nutrient uptake. […] Similarly, a decrease in food intake of mice given Exendin-4 (Ex-4), a GLP-1 analog, in the form of an oral spray prior to meals was observed. Both of these peptides individually modulate body weight, we have evidence that, when used in combination, PYY and Ex-4 may have a synergistic effect on modulation of body weight.

mice [2] = test: PYY mouth spray, food intake after 24 hours fasting; type: in vivo
Experimental: FIGS. 4A-4D depict the effects of Peptide YY Mouth Spray.
Synthetic PYY was purchased from Bachem, Inc USA (Cat #H-6042) and diluted in sterile H2O. Sterile un-used perfume sample vials (Saphora) were utilized to administer PYY in the form of a mouth spray. It was estimated that the volume of one spray approximates to about […].
Mice were conditioned three times to 24 hours fasting starting at the beginning of the dark cycle and ending at the end of the light cycle. At the end of the fasting cycle and as a part of conditioned routine, a sterile water spray had been administered into the mouth. All the experiments were done during the first hour of the dark cycle after fasting. Once the dark cycle started, mice were sprayed once with either PYY or sterile H2O in a total volume of […] per spray. After the treatment, mice were returned to their cages and ten minutes later pre-weighted chow was provided. One hour later, the amount of consumed chow had been recorded by measuring the leftover amount. When the experiments were repeated, mice were fasted only once a week with the control and experimental groups rotated.

Substance | food intake (mice [1]) | overall 24 hr period FI, experimental vs control group (mice [2]; after PYY mouth spray vs sterile H2O) | PYY dose response effect to FI (mice [2]; mouth spray, FI measured after one hour) | less food consumed in one hour compared to control group sprayed with H2O (mice [2]; one mouth spray, 5 μg per 100 g of body weight, after 24 hours fasting, average) [%]
Exendin-4 | decrease | – | – | –
PYY: Synthetic PYY purchased from Bachem (Cat #H-6042), diluted in sterile H2O, given as mouth spray [Peptide YY] | – | similar | significant | 15
